The results in this text go back to patent US20230263797A1, “Mammalian Hybrid Pre-Autophagosomal Structure HyPAS and Compositions and Methods for the Treatment of Coronavirus Infections and Related Disease States” (UNM Rainforest Innovations, priority 2021, published 2023).

One experiment relates to HyPAS formation. The experiment is described as follows: High content microscopy (HCM) quantification of HyPAS formation (overlap between FIP200 and FLAG-ATG16L1). Format: cell-based, human. The protocol:
(§1) HCM was performed as described previously (Kumar et al., 2019). Cells were stimulated for autophagy by incubating in EBSS for 2 h followed by fixation with 4% paraformaldehyde for 5 mins. Cells were permeabilized with 0.1% saponin and blocked in 3% BSA for 30 mins followed by incubation with primary antibody for 6 h and secondary antibody for 1 h. High content microscopy with automated image acquisition and quantification was carried out using a Cellomics HCS scanner and iDEV software (Thermo) in 96-well plates (Kumar et al., 2019). For HCM experiments >500 primary objects were counted per well, minimum 6 wells were counted per experiments and data presented in figures are derived from at least 3 independent experiments.
Immunofluorescence confocal microscopy was carried out as described previously (Kumar et al., 2019). Briefly, cells were plated onto coverslips in 6 well or 12-well plates. Transfected cells were incubated in full media or EBSS (Earle's Balanced Salt Solution) for 2 h and fixed in 4% paraformaldehyde for 10 min followed by permeabilization with 0.1% saponin in 3% BSA. Cells were blocked 3% BSA and then incubated with primary antibodies for 4 h. Cells were washed three times with PBS and then incubated with appropriate secondary antibodies (Invitrogen) for 1 h at room temperature. Coverslips were then mounted using ProLong Gold Antifade Mountant (Invitrogen) and analyzed by confocal microscopy using the Zeiss LSM510 Laser Scanning Microscope.

The test system of experiment [1] is HyPAS formation in vitro (GFP-FIP200 and mCherry-ATG16L1 membranes). The experiment is described as follows: In vitro fusion ivitHC assay between GFP-FIP200 and mCherry-ATG16L1 membranes. Format: biochemical. Conditions: vesicles from cells induced for autophagy; BAPTA used at 20 μM. The protocol: 293A WT or SIGMAR1^KO cells were plated in 96 well plates and transfected with indicated Keima plasmids. Cells were incubated in full media or induced for autophagy by incubating with EBSS for 8 h. Cells were then incubated in full media and incubated with Hoechst 33342 for ten minutes in full media and then acquired for Keima fluorescence at 440 nm and 560 nm using the Cell Insight CX7 High-Content Screening (HCS) Platform (Thermo)(Kumar et al., 2019). In Vitro Fusion ivitHC Assay In vitro fusion assay was developed for HCM platform by modifying a previously described assay (Matsui et al., 2018a; Moreau et al., 2011). […]
One hypothesis that emerged from the above studies is that FIP200 and ATG16L1 represent two precursor membranes with STX17 facilitating heterotypic fusion between them early in autophagy. […] This method mixes vesicles from different cells expressing green (GFP-FIP200) and red (mCherry-ATG16L1) markers and after addition of an ATP and ATP-regenerating system vesicle fusion is monitored by fluorescence microscopy. We adapted this to permit HCM quantification allowing highly powered analyses and termed it IvitHC (in vitro fusion high content assay) (FIG. 2A). […]

For experiment [2], the system named is STX17 and E-SYT2 interactions. The experiment can be described thus: Co-IP analysis of interactions of STX17 with E-SYT2 in 293T cells. Format: cell-based. Conditions: CQ treatment. On the procedure: (§2) Immunoblotting and co-immunoprecipitation (co-IP) were performed as described previously (Kumar et al., 2018). For co-IP, cells were transfected with 10 μg of plasmids, wherever stated, and lysed in NP-40 buffer containing protease inhibitor cocktail (Roche, cat #11697498001) and PMSF (Sigma, cat #93482). Lysates were mixed with 5 μg antibody and incubated at 4° C. for overnight followed by incubation with Dynabeads protein G (Life Technologies) for 4 h, at 4° C. Beads were washed three times with PBS and then boiled with SDS-PAGE buffer for analysis of interacting protein by immunoblotting.

In experiment [3] the test system is STX17 and SERCA2 interactions. The experiment is described as follows: Co-IP analysis of interactions of STX17 with SERCA2 in 293T cells. Conditions: CQ treatment. Format: cell-based. The protocol: as §2
Experiment [4] has as its system LC3-ATG16L1 overlap in HeLa cells. The experiment can be described thus: HCM colocalization between FLAG-ATG16L1 and LC3 (LAP-like noncanonical autophagy). Conditions: WT or STX17KO HeLa cells; monensin 100 μM for 1 h. The class given is cell-based, human. The protocol: as §1, with “Cells were stimulated for autophagy by incubating in EBSS for 2 h followed by fixation with 4% paraformaldehyde for 5 mins.” left out

On to `CC(=O)OCOC(=O)CN(CC(=O)OCOC(C)=O)c1ccccc1OCCOc1ccccc1N(CC(=O)OCOC(C)=O)CC(=O)OCOC(C)=O` [BAPTA-AM], for which the HyPAS formation result with HyPAS formation (STX17KO HeLa cells, starvation-induced autophagy, BAPTA-AM treatment) is listed as “did not further affect”; in the experiment on HyPAS formation (WT HeLa cells, starvation-induced autophagy (EBSS, 2 h), BAPTA-AM treatment) it was “reduced”.
For `CN(C)CCN(C)CCc1ccc(Cl)c(Cl)c1` [BD1047, BD-1047], in the experiment on HyPAS formation (HeLa cells induced for autophagy (EBSS, 2 h), 10 μM for 1 h), the “HyPAS formation induced by starvation” value is given as “inhibited”.
Take `CCN(CC)CCCC(C)Nc1ccnc2cc(Cl)ccc12` (stereo not shown) [CQ, chloroquine]: the “HyPAS formation in vitro (IvitHC)” value in experiment [1] is recorded as “inhibited”. Moreover, the “STX17 and E-SYT2 interactions (co-IP)” value in experiment [2] is reported as “inhibited”. The “STX17 and SERCA2 interactions (co-IP)” value in experiment [3] is given as “did not inhibit”.
`C/C=C(/C)C(=O)O[C@H]1C(C)=C2[C@H]([C@@H]1OC(=O)CCCCCCC)[C@@](C)(OC(C)=O)C[C@H](OC(=O)CCC)[C@@]1(O)[C@H]2OC(=O)[C@@]1(C)O` [TG, thapsigargin]: the “Effect of TG on HyPAS formation” value in the experiment on HyPAS formation (STX17KO HeLa cells) is recorded as “abrogated”. In addition, in the experiment with HyPAS formation (WT HeLa cells, basal conditions, thapsigargin treatment), the HyPAS formation entry is listed as “increased”.
As for `COc1ccc(CCN2CCN(CCCc3ccccc3)CC2)cc1OC` [cutamesine], in the experiment on HyPAS formation (cells grown in full medium, 100 nM for 2 h), the HyPAS formation entry is given as “induced”.
In the case of `CC[C@@]1([C@@H]2O[C@@H]([C@H]3O[C@@](O)(CO)[C@H](C)C[C@@H]3C)C[C@@H]2C)CC[C@H]([C@]2(C)CC[C@]3(C[C@H](O)[C@@H](C)[C@@H]([C@@H](C)[C@@H](OC)[C@H](C)C(=O)O)O3)O2)O1` [monensin], the “LC3-ATG16L1 overlap, as a measure of LAP-like noncanonical autophagy” value in experiment [4] was “increase”.
